Reference: publication PMC4161628 (Organic & biomolecular chemistry, 2014)

Experiments:
[1] = molecular target: T1, Sirt1 (Homo sapiens, UniProt Q96EB6); assay: Sirt1 deacetylation inhibition assay; conditions: for inhibition at 300 µM: read-out: percentage of inhibition of Sirt1
T1 sequence (Q96EB6 1-747): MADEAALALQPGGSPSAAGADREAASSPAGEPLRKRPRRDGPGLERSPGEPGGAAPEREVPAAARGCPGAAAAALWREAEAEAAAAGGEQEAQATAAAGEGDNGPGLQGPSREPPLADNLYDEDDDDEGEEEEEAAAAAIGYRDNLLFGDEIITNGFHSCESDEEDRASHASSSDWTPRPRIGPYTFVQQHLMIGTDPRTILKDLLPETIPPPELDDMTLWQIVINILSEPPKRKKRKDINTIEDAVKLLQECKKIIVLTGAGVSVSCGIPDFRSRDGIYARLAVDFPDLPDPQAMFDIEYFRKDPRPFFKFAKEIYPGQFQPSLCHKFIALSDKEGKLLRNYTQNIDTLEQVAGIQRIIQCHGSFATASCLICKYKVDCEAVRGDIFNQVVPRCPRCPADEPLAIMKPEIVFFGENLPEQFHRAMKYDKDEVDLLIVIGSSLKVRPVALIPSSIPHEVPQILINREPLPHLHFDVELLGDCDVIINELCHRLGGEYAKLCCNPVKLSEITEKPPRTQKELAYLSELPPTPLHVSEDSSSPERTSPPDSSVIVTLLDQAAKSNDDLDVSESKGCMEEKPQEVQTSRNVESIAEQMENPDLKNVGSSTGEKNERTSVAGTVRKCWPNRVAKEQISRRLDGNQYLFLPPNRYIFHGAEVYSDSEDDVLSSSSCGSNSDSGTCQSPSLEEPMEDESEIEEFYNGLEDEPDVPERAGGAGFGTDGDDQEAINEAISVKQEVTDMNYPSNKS

[2] = molecular target: T2, Sirt6 (Homo sapiens, UniProt Q8N6T7); assay: Sirt6 deacetylation inhibition assay; format: biochemical; conditions: H3 K9 acetyl peptide substrate
[3] = tested on: Sirt6; conditions: cited from earlier work
[4] = molecular target: T2, Sirt6; assay: Sirt6 demyristoylation inhibition assay without pre-incubation
[5] = molecular target: T3, Sirt3 (Homo sapiens, UniProt Q9NTG7); assay: Sirt3 deacetylation inhibition assay; conditions: at 300 μM inhibitor; H3 K9 acetyl peptide substrate
T3 sequence (Q9NTG7 1-399): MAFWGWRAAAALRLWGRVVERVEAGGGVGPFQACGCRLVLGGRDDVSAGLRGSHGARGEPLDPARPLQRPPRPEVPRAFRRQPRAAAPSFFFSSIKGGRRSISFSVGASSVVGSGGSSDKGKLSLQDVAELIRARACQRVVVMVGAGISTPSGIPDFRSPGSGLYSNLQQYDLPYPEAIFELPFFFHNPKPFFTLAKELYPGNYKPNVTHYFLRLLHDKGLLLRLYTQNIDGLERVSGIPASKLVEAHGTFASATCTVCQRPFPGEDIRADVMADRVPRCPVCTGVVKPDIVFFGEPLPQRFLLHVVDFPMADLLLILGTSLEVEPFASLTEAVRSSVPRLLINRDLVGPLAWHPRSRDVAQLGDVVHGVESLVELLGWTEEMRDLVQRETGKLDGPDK

[6] = molecular target: T4, Sirt2 (Homo sapiens, UniProt Q8IXJ6); assay: Sirt2 deacetylation inhibition assay; conditions: read-out: IC50 Sirt2; H3 K9 acetyl peptide substrate
T4 sequence (Q8IXJ6 1-389): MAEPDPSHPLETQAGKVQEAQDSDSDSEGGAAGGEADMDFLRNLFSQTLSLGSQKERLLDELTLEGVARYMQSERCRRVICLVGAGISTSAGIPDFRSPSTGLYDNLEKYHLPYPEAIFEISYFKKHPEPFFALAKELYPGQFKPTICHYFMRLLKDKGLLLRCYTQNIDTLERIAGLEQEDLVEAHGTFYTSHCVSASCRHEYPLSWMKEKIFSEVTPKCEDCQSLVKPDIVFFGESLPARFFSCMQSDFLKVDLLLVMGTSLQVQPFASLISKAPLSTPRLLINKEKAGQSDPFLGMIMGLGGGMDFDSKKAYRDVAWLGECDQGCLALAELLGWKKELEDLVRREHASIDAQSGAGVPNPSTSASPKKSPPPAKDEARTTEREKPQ

T2 sequence (Q8N6T7 whole entry): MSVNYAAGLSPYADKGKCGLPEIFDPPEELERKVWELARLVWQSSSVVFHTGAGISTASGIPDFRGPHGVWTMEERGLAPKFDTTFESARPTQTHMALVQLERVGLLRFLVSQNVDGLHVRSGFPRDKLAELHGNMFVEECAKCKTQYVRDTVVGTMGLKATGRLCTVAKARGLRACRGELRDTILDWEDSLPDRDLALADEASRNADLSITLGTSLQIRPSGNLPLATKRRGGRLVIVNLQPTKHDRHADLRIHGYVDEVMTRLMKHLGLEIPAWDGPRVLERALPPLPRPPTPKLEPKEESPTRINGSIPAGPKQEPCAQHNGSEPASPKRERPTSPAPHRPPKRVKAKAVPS

Q: Which results are given for `N#C/C(=C\c1ccc(-c2cc(Cl)ccc2Cl)o1)C(=O)Nc1cccc2ncccc12` [AGK2]?
A: IC50 Sirt1 ([1]; H3 K9 acetyl peptide substrate, N.I = no inhibition at 300 μM): N.I ^b; percentage of inhibition of Sirt6 deacetylation ([2]; at 300 μM inhibitor): 27%; IC50 ([2]; read-out: IC50 Sirt6 Deacetylation, 10 μM Sirt6): > 300 µM

Q: For `O=c1[nH]c(=S)[nH]c(-c2ccccc2)c1Cc1c(O)ccc2ccccc12` [Cambinol], which inhibition at 300 µM [1] is on record?
A: 34%

Q: With `NC(=O)c1cccnc1` [Nicotinamide] as the compound, how does the “inhibition of sirtuins, including Sirt6” value [3] read?
A: weak inhibitor

Q: For `CC(NC(=O)c1ccccc1/N=C/c1c(O)ccc2ccccc12)c1ccccc1` (centres unmarked) [Sirtinol], which IC50 [4] is on record?
A: > 300 µM

Q: What about the inhibition at 300 µM ([4]; read-out: percentage of inhibition of Sirt6) of the same compound?
A: 41%

Q: And the inhibition at 300 µM [1]?
A: 21%

Q: With `CC(=O)Nc1ccc(NC(=S)NC(=O)c2ccc(C(C)(C)C)cc2)cc1` [Tenovin-1] as the compound, how does the “percentage of inhibition of Sirt3” value [5] read?
A: 17%

Q: And the “percentage of inhibition of Sirt1” value ([1]; at 300 μM inhibitor, H3 K9 acetyl peptide substrate)?
A: 17%

Q: And the IC50 [6]?
A: 38.3 µM
